Experimental findings from patent publication US20080280879A1, “SUBSTITUTED HETEROCYCLIC DERIVATIVES AND THEIR PHARMACEUTICAL USE AND COMPOSITIONS” (priority 2007, published 2008) are described below.

In brackets after ≈: the same amount, converted by molar mass.

Type in all cases: cell-based, Staphylococcus aureus
Test [1] concerns Staph aureus 1095 MRSA. The test is described as follows: MIC, microtiter broth dilution (CLSI M7-A7), Assay 1, Table 12 column A, no serum. The settings on record: Assay 1, no serum; for MIC: Staphylococcus aureus, MRSA. The method, then: (§1) The assays described herein include a panel of bacterial isolates of Staphylococcus aureus. Assay 1 comprises the strains noted in Columns A through E, and Assay 2 comprises the strains noted in Columns F through H. The assays are performed in microtiter trays according to Methods for Dilution Antimicrobial Susceptibility Tests for Bacteria that Grow Aerobically; Approved Standard-7th edition (M7-A7) and interpreted according to the Performance Standards for Antimicrobial Susceptibility Testing; 16th Informational Supplement (M100-S16) published by Clinical Laboratory Standards Institute (CLSI). The antibacterial activity is presented in the form of a minimum inhibitory concentration (MIC) value in μg/ml format. The MIC value represents the lowest concentration of drug measured which prevented macroscopically visible growth under the conditions and specific doses tested. The compounds were initially dissolved in DMSO as 30 mM stocks and diluted accordingly to adjust to a concentration of 10 mg/ml or the compounds were dissolved in DMSO at a concentration of 10 mg/ml. For assessment of activity in the presence of human serum, S. aureus 1146 and S. aureus 1031 were inoculated into Mueller-Hinton Broth with 50% pooled inactivated human serum. In some cases, compounds were tested more than once in a particular assay. Where noted, the MIC value shown in Table 12 represents the geometric mean of the data from multiple runs.
(§2) It should be understood that the data in columns A-H represents MIC data in μg/ml and the notation “<=” means ‘less than or equal to’.

For test [2], the system named is Staph aureus 1146. As to the kind of experiment: MIC, microtiter broth dilution (CLSI M7-A7), Assay 1, Table 12 column B, no serum. The note with it: for MIC, column B: Staph aureus 1146, Assay 1, no serum; for MIC: Staphylococcus aureus, 1146, Staph aureus 1146, Assay 1, no serum. The method, then:
as §1, §2
(In broth dilution the organism is exposed to a series of concentrations in liquid medium.)

Test [3] deals with Staph aureus 1146. The test is described as follows: MIC in Mueller-Hinton Broth with 50% pooled inactivated human serum, Assay 1, Table 12. The note with it: for MIC, column C: Staph aureus 1146, Assay 1, 50% human serum; for MIC: Staphylococcus aureus, 1146, Staph aureus 1146, Assay 1, 50% human serum, read-out: MIC, column C. The method, then: as §1, §2
In test [4] the test system is Staph aureus 2811. The test is described as follows: MIC, microtiter broth dilution (CLSI M7-A7), Assay 1, Table 12 column D, no serum. The note with it: for MIC, column D: Staph aureus 2811, Assay 1, no serum; for MIC: Staphylococcus aureus, 2811, Staph aureus 2811, Assay 1, no serum. Here is the method:
as §1, §2

The test system of test [5] is Staph aureus 2812. As to the kind of experiment: MIC, microtiter broth dilution (CLSI M7-A7), Assay 1, Table 12 column E, no serum. The note with it: for MIC, column E: Staph aureus 2812, Assay 1, no serum; for MIC: Staphylococcus aureus, 2812, Staph aureus 2812, Assay 1, no serum. Here is the method:
as §1, §2

In the case of “3-{[2-(3-chloro-6-methoxyquinolin-4-yl)ethyl]amino}-1-(cis-3-phenylcyclobutyl)pyrrolidine-3-carboxylic acid [Example 113]”, the “MIC, column A” value in test [1] came out at 0.125 µg/mL. Besides, in test [2], the “MIC, column B” value is on record as “<=.0625 μg/ml”. In addition, in test [3], the “MIC, column C” value is 16 µg/mL. The “MIC, column D” value in test [4] is 0.125 µg/mL. In test [5], the “MIC, column E” value came out at 0.25 µg/mL.
As for “3-{[2-(3-chloro-8-methoxyquinolin-4-yl)ethyl]amino}-1-(trans-3-phenylcyclobutyl)pyrrolidine-3-carboxylic acid [Example 114]”, the “MIC, column A” value in test [1] was 1 µg/mL. Besides, the “MIC, column B” value in test [2] came out at 0.5 µg/mL. In addition, in test [3], the “MIC, column C” value was over 64 µg/mL. The “MIC, column D” value in test [4] worked out at 0.5 µg/mL. The “MIC, column E” value in test [5] came to 0.5 µg/mL.
`COc1ccc2ncc(F)c(C(O)CC[C@@H]3CCN(C4CC(c5ccccc5)C4)C[C@@H]3C(=O)O)c2c1` (mixture of isomers) [Example 14, (3R,4R)-4-[3-(3-fluoro-6-methoxyquinolin-4-yl)-3-hydroxypropyl]-1-(3-phenylcyclobutyl)piperidine-3-carboxylic acid]: the MIC was at most 0.0947 µg/mL in test [1]; 0.158 µg/mL in test [2]; at most 0.379 µg/mL in test [3]; at most 0.0947 µg/mL in test [4]; at most 0.0947 µg/mL in test [5].
With `COc1ccc2nccc(C(O)CC[C@@H]3CCN(C4CC(O)(c5ccccc5)C4)C[C@@H]3C(=O)O)c2c1` (mixture of isomers) [Example 95, (3R,4R)-4-[3-hydroxy-3-(6-methoxyquinolin-4-yl)propyl]-1-(3-hydroxy-3-phenylcyclobutyl)piperidine-3-carboxcylic acid], in test [1], the “MIC, column A” value was over 64 µg/mL. In addition, in test [2], the “MIC, column B” value is 16 µg/mL. For the same compound, the “MIC, column C” value in test [3] was over 64 µg/mL. Further, in test [4], the “MIC, column D” value is over 64 µg/mL. The “MIC, column E” value in test [5] is over 64 µg/mL.
Regarding `COc1ccc2nccc(C(O)CC[C@@H]3CCN(C4CC(O)(c5ccccc5)C4)C[C@@H]3C(=O)O)c2c1` (mixture of isomers) [Example 96, (3R,4R)-4-[3-hydroxy-3-(6-methoxyquinolin-4-yl)propyl]-1-(3-hydroxy-3-phenylcyclobutyl)piperidine-3-carboxcylic acid], the “MIC, column A” value in test [1] is over 64 µg/mL. Further, the “MIC, column B” value in test [2] was 8 µg/mL. Further, in test [3], the “MIC, column C” value was over 64 µg/mL. Further, the “MIC, column D” value in test [4] is over 64 µg/mL. In test [5], the “MIC, column E” value is over 64 µg/mL.
For `COc1ccc2nccc(C(O)CC[C@@H]3CCN(CC4CC(c5ccccc5)C4)C[C@@H]3C(=O)O)c2c1` (mixture of isomers) [Example 177, (3R,4R)-4-[3-hydroxy-3-(6-methoxyquinolin-4-yl)propyl]-1-[(3-phenylcyclobutyl)methyl]piperidine-3-carboxylic acid], the MIC in test [1] was found to be 8 µg/mL; in test [2] it was 4 µg/mL; in test [3], 32 µg/mL; in test [4], 4 µg/mL; in test [5], 8 µg/mL.
On to `O=C(O)[C@H]1CN(C2CC(c3cc(F)ccc3F)C2)CC[C@H]1CCC(O)c1c(F)cnc2ccc(O)nc12` (mixture of isomers) [Example 206, (3R,4R)-1-[3-(2,5-difluorophenyl)cyclobutyl]-4-[3-(3-fluoro-6-hydroxy-1,5-naphthyridin-4-yl)-3-hydroxypropyl]piperidine-3-carboxylic acid], for which the MIC in test [1] was determined as 4 µg/mL; in test [2], 2 µg/mL; in test [3] it was 16 µg/mL; in test [4], 2 µg/mL; in test [5], 4 µg/mL.
Consider `COc1ccc2nccc(C(O)CCC3CCN(C[C@@H]4C[C@H]4c4ccccc4)CC3C(=O)O)c2c1` (relative stereo) [Example 25, 4-[3-hydroxy-3-(6-methoxyquinolin-4-yl)propyl]-1-{[(trans)-2-phenylcyclopropyl]methyl}piperidine-3-carboxylic acid], for which the MIC in test [1] was determined as 2 µg/mL (≈ 4.21 µM); in test [2] it was 2 µg/mL (≈ 4.21 µM); in test [3], 4 µg/mL (≈ 8.43 µM); in test [4], 1 µg/mL (≈ 2.11 µM); in test [5] it was 1 µg/mL (≈ 2.11 µM).
Turning to `COc1ccc2nccc(C(O)CCC3CCN(C[C@@H]4C[C@H]4c4cc(F)ccc4F)CC3C(=O)O)c2c1` (relative stereo) [Example 26, 1-{[(trans)-2-(2,5-difluorophenyl)cyclopropyl]methyl}-4-[3-hydroxy-3-(6-methoxyquinolin-4-yl)propyl] piperidine-3-carboxylic acid], the MIC was found to be 1 µg/mL (≈ 1.96 µM) in test [1]; 0.25 µg/mL (≈ 0.49 µM) in test [2]; 4 µg/mL (≈ 7.83 µM) in test [3]; 0.25 µg/mL (≈ 0.49 µM) in test [4]; 0.25 µg/mL (≈ 0.49 µM) in test [5].
For `COc1ccc2ncc(F)c(C(O)CC[C@@H]3CCN(C4CC(c5ccccc5)C4)C[C@@H]3C(=O)O)c2c1` (single isomer, unassigned) [Example 15], the results for the MIC in test [1] and in test [4] were 0.0884 µg/mL (≈ 0.179 µM) and 0.0625 µg/mL (≈ 0.127 µM), respectively. Moreover, the “MIC, column B” value in test [2] amounted to 0.0156 µg/mL (≈ 0.0317 µM). In test [3], the “MIC, column C” value amounted to 0.25 µg/mL (≈ 0.508 µM). For the same compound, the “MIC, column E” value in test [5] turned out to be 0.03125 µg/mL (≈ 0.0634 µM).
On to `COc1ccc2ncc(F)c(C(O)CC[C@@H]3CCN(C4CC(c5ccccc5)C4)C[C@@H]3C(=O)O)c2c1` (single isomer, unassigned) [Example 16], for which, in test [1], the “MIC, column A” value came to 0.125 µg/mL (≈ 0.254 µM). Besides, the “MIC, column B” value in test [2] was “<=.0884 μg/ml”. For the same compound, the “MIC, column C” value in test [3] was found to be 1 µg/mL (≈ 2.03 µM). The “MIC, column D” value in test [4] stood at 0.125 µg/mL (≈ 0.254 µM). Further, in test [5], the “MIC, column E” value is 0.125 µg/mL (≈ 0.254 µM).
Regarding `COc1ccc2ncc(F)c(C(O)CC[C@@H]3CCN(C4CC(c5c(F)cccc5F)C4)C[C@@H]3C(=O)O)c2c1` (single isomer, unassigned) [Example 18], the MIC in test [1] was at most 0.0625 µg/mL; in test [2] it was at most 0.0625 µg/mL; in test [3], 0.25 µg/mL (≈ 0.473 µM); in test [4], at most 0.0625 µg/mL; in test [5], at most 0.0625 µg/mL.
On to `COc1ccc2ncc(F)c(C(O)CC[C@@H]3CCN(C4CC(c5c(F)cccc5F)C4)C[C@@H]3C(=O)O)c2c1` (single isomer, unassigned) [Example 19], for which the “MIC, column A” value in test [1] is listed as “<=.0625 μg/ml”. Further, the “MIC, column B” value in test [2] was “<=.0625 μg/ml”. In addition, in test [3], the “MIC, column C” value was determined as 0.5 µg/mL (≈ 0.946 µM). The “MIC, column D” value in test [4] is reported as “<=.0625 μg/ml”. For the same compound, in test [5], the “MIC, column E” value is on record as “<=.0625 μg/ml”.
Regarding `COc1ccc2nccc(C(O)CC[C@@H]3CCN(C4CC(c5c(F)cccc5F)C4)C[C@@H]3C(=O)O)c2c1` (single isomer, unassigned) [Example 27], the MIC in test [1] was at most 0.0625 µg/mL; in test [2], at most 0.125 µg/mL; in test [3] it was 0.353 µg/mL (≈ 0.692 µM); in test [4], at most 0.0625 µg/mL; in test [5] it was at most 0.0625 µg/mL.
As for `COc1ccc2ncc(F)c(C(O)CC[C@@H]3CCN(C4CC(c5cc(F)ccc5F)C4)C[C@@H]3C(=O)O)c2c1` (single isomer, unassigned) [Example 59], the MIC in test [1], in test [2], in test [4] and in test [5] was at most 0.0625 µg/mL in each case. The “MIC, column C” value in test [3] is reported as “<=.0625 μg/ml”.
For the compound `COc1ccc2ncc(F)c(C(O)CC[C@@H]3CCN(C4CC(c5cc(F)ccc5F)C4)C[C@@H]3C(=O)O)c2c1` (single isomer, unassigned) [Example 60], the “MIC, column A” value in test [1] worked out at 0.125 µg/mL (≈ 0.236 µM). In addition, in test [2], the “MIC, column B” value is on record as “<=.0625 μg/ml”. Further, the “MIC, column C” value in test [3] came to 4 µg/mL (≈ 7.57 µM). Moreover, the “MIC, column D” value in test [4] was “<=.0625 μg/ml”. In test [5], the “MIC, column E” value was “<=.0625 μg/ml”.
In the case of `COc1ccc2nccc(C(O)CC[C@@H]3CCN(C4CC(c5cccc(F)c5F)C4)C[C@@H]3C(=O)O)c2c1` (stereo partly drawn) [Example 58, (3R,4R)-1-[3-(2,3-difluorophenyl)cyclobutyl]-4-[3-hydroxy-3-(6-methoxyquinolin-4-yl)propyl] piperidine-3-carboxylic acid], in test [3], the “MIC, column C” value turned out to be 2 µg/mL (≈ 3.92 µM).
On to `COc1ccc2nccc([C@@H](O)CC[C@@H]3CCN(C4CC(c5ccc(-c6ccccc6)cc5)C4)C[C@@H]3C(=O)O)c2c1` (stereo partly drawn) [Example 70, (3R,4R)-1-(3-biphenyl-4-ylcyclobutyl)-4-[(3S)-3-hydroxy-3-(6-methoxyquinolin-4-yl)propyl] piperidine-3-carboxylic acid], for which, in test [1], the “MIC, column A” value was over 64 µg/mL.
`COc1ccc2ncc(F)c(C(O)CC[C@@H]3CCN(C4CC(Sc5cc(F)ccc5F)C4)C[C@@H]3C(=O)O)c2c1` (stereo partly drawn) [Example 229, (3R,4R)-1-[3-(2,5-Difluoro-phenylsulfanyl)-cyclobutyl]-4-[(S)-3-(3-fluoro-6-methoxy-quinolin-4-yl)-3-hydroxy-propyl]-piperidine-3-carboxylic acid]: the minimal inhibitory concentration (MIC) in test [3] is 32 µg/mL (≈ 57.1 µM).

The term MIC denotes the lowest concentration found to suppress growth.
